Results reported in patent US12103915B2, “TEAD inhibitors and methods of uses thereof” (Insilico Medicine IP Limited, priority 2022, dated 2024).

How the values were obtained:
Assay type in all cases: binding
TEAD1 = TEAD1 (Homo sapiens, UniProt P28347); test: Thermal shift assay TEAD1
Description: (§1) Example B: Thermal Shift Assay
(§2) 1) Prepare a fresh dilution of Protein Thermal Shift™ Dye (Applied Biosystems, 1000×) to 8× by […].
(§3) 2) To ensure the same DMSO concentration, the compounds were diluted as follows: Prepare 10 mM stock solution of compounds;
(§4) The final DMSO concentration was 0.1%
(§5) 10 μM: Diluting stock solution to 100 μM by using PBS.
(§6) 1 μM: Diluting stock solution to 1 mM by using DMSO, then dilute to 10 μM by using PBS.
(§7) TEAD1: the stock concentration was 2.9 mg/ml; the final concentration was 0.2 mg/ml. TEAD2: the stock concentration was 1.8 mg/ml; the final concentration was 0.08 mg/ml.
(§8) 4) Place the appropriate reaction plate or tubes on ice, then prepare the protein melt reactions:
(§9) 5) Pipet each reaction up and down 10 times to mix well.
(§10) 6) Seal the plate with MicroAmp™ Optical Adhesive Film, spin it at 1000 rpm for 1 minute.
(§11) 7) Set up and run on the qPCR instrument.
(§12) Using thermal Shift™ Software v1.3 to analysis.

TEAD2 = TEAD2 (Homo sapiens, UniProt Q15562); test: Thermal shift assay TEAD2
TEAD2, sequence (Q15562 whole entry, species assumed): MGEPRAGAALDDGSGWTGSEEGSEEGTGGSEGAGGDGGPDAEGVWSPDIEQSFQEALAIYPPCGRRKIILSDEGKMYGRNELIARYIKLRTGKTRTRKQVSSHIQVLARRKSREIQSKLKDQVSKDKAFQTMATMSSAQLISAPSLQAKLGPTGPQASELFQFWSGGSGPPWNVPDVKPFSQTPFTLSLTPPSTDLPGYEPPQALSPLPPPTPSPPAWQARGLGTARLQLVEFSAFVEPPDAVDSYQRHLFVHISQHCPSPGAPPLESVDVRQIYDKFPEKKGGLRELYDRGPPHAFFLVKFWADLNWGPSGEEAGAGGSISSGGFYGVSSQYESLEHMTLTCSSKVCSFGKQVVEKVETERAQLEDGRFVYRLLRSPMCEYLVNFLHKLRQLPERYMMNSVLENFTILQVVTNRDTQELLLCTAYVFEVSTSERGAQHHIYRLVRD
Description: as §1, §2, §3, §4, §5, §6, §7, §8, §9, §10, §11, §12

TEAD3 = TEAD3 (Homo sapiens, UniProt Q99594); test: Thermal shift assay TEAD3
TEAD3, sequence (Q99594 whole entry, species assumed): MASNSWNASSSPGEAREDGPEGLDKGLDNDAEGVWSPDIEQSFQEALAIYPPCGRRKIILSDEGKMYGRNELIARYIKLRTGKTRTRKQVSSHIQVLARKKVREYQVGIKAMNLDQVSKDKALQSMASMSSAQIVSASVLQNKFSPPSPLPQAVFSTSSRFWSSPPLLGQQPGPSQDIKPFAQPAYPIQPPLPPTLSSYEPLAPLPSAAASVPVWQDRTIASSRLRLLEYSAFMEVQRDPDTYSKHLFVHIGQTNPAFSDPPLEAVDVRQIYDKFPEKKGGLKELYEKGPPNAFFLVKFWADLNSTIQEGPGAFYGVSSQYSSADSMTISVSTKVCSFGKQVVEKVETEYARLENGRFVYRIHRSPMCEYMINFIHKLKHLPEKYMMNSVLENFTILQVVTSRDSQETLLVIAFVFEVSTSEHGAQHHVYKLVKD
Description: as §1, §2, §3, §4, §5, §6
TEAD3: the stock concentration was 2.4 mg/ml; the final concentration was 0.1 mg/ml.
as §8, §9, §10, §11, §12

TEAD4 = TEAD4 (Homo sapiens, UniProt Q15561); test: Thermal shift assay TEAD4
TEAD4, sequence (Q15561 whole entry, species assumed): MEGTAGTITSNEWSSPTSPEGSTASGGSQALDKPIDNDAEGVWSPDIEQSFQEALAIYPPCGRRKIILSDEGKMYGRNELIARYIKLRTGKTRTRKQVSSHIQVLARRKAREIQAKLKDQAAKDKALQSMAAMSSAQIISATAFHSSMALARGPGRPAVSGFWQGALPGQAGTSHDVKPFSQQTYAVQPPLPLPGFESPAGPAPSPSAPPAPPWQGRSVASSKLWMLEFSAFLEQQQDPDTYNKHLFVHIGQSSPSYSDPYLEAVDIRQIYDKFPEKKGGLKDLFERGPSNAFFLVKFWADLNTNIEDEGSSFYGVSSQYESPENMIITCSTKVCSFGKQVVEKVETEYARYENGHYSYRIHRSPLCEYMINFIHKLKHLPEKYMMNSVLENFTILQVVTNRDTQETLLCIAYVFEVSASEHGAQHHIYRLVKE
Description: as §1, §2, §3, §4, §5, §6
TEAD4: the stock concentration was 2.3 mg/ml; the final concentration was 0.1 mg/ml.
as §8, §9, §10, §11, §12

TEAD1, sequence (P28347 whole entry, species assumed): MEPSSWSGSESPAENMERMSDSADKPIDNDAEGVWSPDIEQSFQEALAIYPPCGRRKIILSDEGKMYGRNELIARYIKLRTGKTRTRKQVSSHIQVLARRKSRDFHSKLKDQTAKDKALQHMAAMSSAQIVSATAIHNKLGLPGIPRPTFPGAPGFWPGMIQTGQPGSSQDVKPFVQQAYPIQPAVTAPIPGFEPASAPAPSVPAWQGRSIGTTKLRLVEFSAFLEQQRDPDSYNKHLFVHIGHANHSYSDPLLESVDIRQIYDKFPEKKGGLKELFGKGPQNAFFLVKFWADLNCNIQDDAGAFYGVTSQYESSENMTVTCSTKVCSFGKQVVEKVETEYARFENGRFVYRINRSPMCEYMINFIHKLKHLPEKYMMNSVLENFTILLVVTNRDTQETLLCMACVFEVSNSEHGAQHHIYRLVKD

SMILES | TEAD1 ΔTm (TEAD1) | TEAD2 ΔTm (TEAD2) | TEAD3 ΔTm (TEAD3) | TEAD4 ΔTm (TEAD4)
CNS(=O)(=O)[C@@H]1CC1c1cc(-c2ccc(C(F)(F)F)cc2)cc2cn(C)nc12 (mixture of isomers) [Example 50] | 4.2 °C | 2.5 °C | 0.7 °C | 5.7 °C
O=C(O)[C@@H]1CC1c1cc(Oc2ccc(C(F)(F)F)cc2)cn2ccnc12 (mixture of isomers) [Example 83] | 2.7 °C | 8.0 °C | 1.4 °C | 3.6 °C
CNC(=O)[C@@H]1CC1c1cc(Oc2ccc(C(F)(F)F)cc2)cn2ccnc12 (mixture of isomers) [Example 84] | 1.0 °C | 6.5 °C | 1.2 °C | 3.1 °C
Cn1cc2cc(Oc3ccc(C(F)(F)F)cc3)cc([C@@H]3C[C@H]3C(=O)O)c2n1 (single isomer, unassigned) [Example 16a] | 11.3 °C | 13.7 °C | 2 °C | 11.4 °C
Cn1cc2cc(Oc3ccc(C(F)(F)F)cc3)cc([C@H]3C[C@@H]3C(=O)O)c2n1 (single isomer, unassigned) [Example 16b] | 12.1 °C | 14.9 °C | 15 °C | 12.5 °C
[2H]C([2H])([2H])n1cc2cc(Oc3ccc(C(F)(F)F)cc3)cc([C@@H]3C[C@H]3C(=O)NC)c2n1 (single isomer, unassigned) [Example 76a] | 5.4 °C | 10.3 °C | 0.6 °C | 4.7 °C
[2H]C([2H])([2H])n1cc2cc(Oc3ccc(C(F)(F)F)cc3)cc([C@H]3C[C@@H]3C(=O)NC)c2n1 (single isomer, unassigned) [Example 76b] | 11.5 °C | 15.4 °C | 10.9 °C | 12.6 °C
Cn1cc2cc(O[C@H]3CC[C@@H](C(F)(F)F)CC3)cc([C@@H]3C[C@H]3C(=O)N3CC(O)C3)c2n1 (single isomer, unassigned) [Example 87a] | 4.9 °C | 10.1 °C | 1.0 °C | 6.8 °C
Cn1cc2cc(O[C@H]3CC[C@@H](C(F)(F)F)CC3)cc([C@H]3C[C@@H]3C(=O)N3CC(O)C3)c2n1 (single isomer, unassigned) [Example 87b] | −0.4 °C | 2.6 °C | 0.0 °C | 0.3 °C
Cn1cc2cc(Oc3ccc(C(F)(F)F)cn3)cc([C@@H]3C[C@H]3C(=O)N3CC(O)C3)c2n1 (single isomer, unassigned) [Example 88a] | −0.3 °C | 1.5 °C | 0.1 °C | 0.1 °C
Cn1cc2cc(Oc3ccc(C(F)F)cc3)cc([C@@H]3C[C@H]3C(=O)N3CC(O)C3)c2n1 (single isomer, unassigned) [Example 89a] | 0.0 °C | 3.3 °C | 0.2 °C | −0.2 °C
Cn1cc2cc(Oc3ccc(F)c(F)c3)cc([C@@H]3C[C@H]3C(=O)N3CC(O)C3)c2n1 (single isomer, unassigned) [Example 90a] | −0.2 °C | 2.6 °C | 0.2 °C | 0.6 °C
Cn1cc2cc(Oc3ccc(C(F)(F)F)cc3)cc(C3C[C@H]3C(=O)N3CC4CC3[C@H](O)[C@H]4O)c2n1 (single isomer, unassigned) [Example 106] | 6.4 °C | 9.9 °C | 2.2 °C | 8.5 °C
Cn1cc2cc(Oc3ccc(C(F)(F)F)cc3)cc(C3C[C@H]3C(=O)NC[C@H]3C[C@@H](O)[C@@H](O)C3O)c2n1 (single isomer, unassigned) [Example 107] | 5.0 °C | 4.9 °C | 1.1 °C | 6.1 °C
Cn1cc2nc(Oc3ccc(C(F)(F)F)cc3)nc([C@H]3C[C@@H]3C(=O)N3CC(O)C3)c2n1 (single isomer, unassigned) [Example 109b] | 1.8 °C | 2.2 °C | 0.9 °C | 3.4 °C
Cn1cc2cc(Oc3ccc(C(F)(F)F)cc3)cc(C3C[C@H]3C(=O)N3CCS(=O)(=O)CC3)c2n1 (single isomer, unassigned) [Example 110] | 4.1 °C | 5.2 °C | 1.0 °C | 4.1 °C
Cn1cc2cc(Oc3ccc(C(F)(F)F)cc3)cc(C3C[C@H]3C(=O)N3CCP(C)(=O)CC3)c2n1 (single isomer, unassigned) [Example 111] | 3.0 °C | 3.7 °C | 0.7 °C | 3.2 °C
CO[C@H]1CN(C(=O)[C@@H]2C[C@H]2c2cc(Oc3ccc(C(F)(F)F)cc3)cc3cn(C)nc23)C[C@@H]1O (single isomer, unassigned) [Example 112a] | 7.2 °C | 9.5 °C | 2.0 °C | 8.6 °C
Cn1cc2cc(Oc3ccc(C(F)(F)F)cc3)cc(C3C[C@H]3C(=O)N3CC(C(=O)O)C3)c2n1 (single isomer, unassigned) [Example 113] | 4.1 °C | 5.7 °C | 1.5 °C | 4.2 °C
Cn1cc2cc(Oc3ccc(C(F)(F)F)cc3)cc(C3C[C@H]3C(=O)N3CCOC4(COC4)C3)c2n1 (single isomer, unassigned) [Example 114] | 4.6 °C | 7.1 °C | 1.5 °C | 7.1 °C
CN1CCC2(CN(C(=O)[C@@H]3CC3c3cc(Oc4ccc(C(F)(F)F)cc4)cc4cn(C)nc34)C2)C1=O (single isomer, unassigned) [Example 115] | 4.2 °C | 3.5 °C | 1.3 °C | 3.5 °C
Cn1cc2cc(Oc3ccc(C(F)(F)F)cc3)cc(C3C[C@H]3C(=O)N3C4COCC3CC(O)C4)c2n1 (single isomer, unassigned) [Example 116a] | 4.6 °C | 6.1 °C | 1.8 °C | 6.1 °C
Cn1cc2cc(Oc3ccc(C(F)(F)F)cc3)cc(C3C[C@H]3C(=O)N3C4COCC3CC(O)C4)c2n1 (single isomer, unassigned) [Example 116b] | 5.5 °C | 5.3 °C | 2.2 °C | 7.1 °C
Cn1cc2nc(Oc3ccc(C(F)(F)F)cc3)cc([C@@H]3C[C@H]3C(=O)N3C4COCC3C4)c2n1 (single isomer, unassigned) [Example 118] | 4.6 °C | 6.2 °C | 1.6 °C | 6.1 °C
Cn1cc2nc(Oc3ccc(C(F)(F)F)cc3)cc([C@@H]3C[C@H]3C(=O)N3C[C@H]4C[C@@H]3CO4)c2n1 (single isomer, unassigned) [Example 119] | 4.2 °C | 6.1 °C | 1.6 °C | 4.7 °C
Cn1cc2nc(Oc3ccc(C(F)(F)F)cc3)cc([C@@H]3C[C@H]3C(=O)N3C[C@@H]4C[C@H]3CO4)c2n1 (single isomer, unassigned) [Example 120] | 4.1 °C | 6.5 °C | 1.2 °C | 4.5 °C
Cn1cc2cc(Oc3ccc(C(F)(F)F)cc3)cc([C@@H]3C[C@H]3C(=O)N3CC4CC3CN4)c2n1 (single isomer, unassigned) [Example 122] | 5.9 °C | 6.5 °C | 1.8 °C | 4.9 °C
